In assay [1] the target is human P2X3 receptor (Homo sapiens (Human), UniProt P56373). The assay can be described thus: Intracellular calcium measurement (FLIPR, Fluo-4) of antagonist activity at human P2X3 receptors. To be noted: read-out: hP2X3 IC50. Type of assay: cell-based. The method, boiled down:
(§1)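 Antagonism quantified from peak calcium fluorescence (Fluo-4, FLIPR, 90 sec read) evoked by EC80 α,β-Me-ATP, after a 30 min, 37° C. compound pretreatment in 1% DMSO. Human P2X3- or P2X2/3-expressing cells used; triplicate means fitted for IC50, percent maximal inhibition and Hill coefficient.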
Background: Calcium flux is commonly read through the fluorescence of an indicator in the cells.

Assay [2] addresses human P2X2/3 receptor (Homo sapiens (Human), UniProt P56373+Q9UBL9). The assay can be described thus: Intracellular calcium measurement (FLIPR, Fluo-4) of antagonist activity at human P2X2/3 receptors. Type of assay: cell-based. In short, it runs like this: as §1
Setting [3] is: human P2X3, FLIPR calcium assay, agonist α,β-Me-ATP.
Setting [4] is: human P2X2/3, FLIPR calcium assay, agonist α,β-Me-ATP, read-out: hP2X2/3 IC50.

Where two headings read alike, the source gives them in different places.

Sequence of human P2X2/3 receptor (P56373 whole entry): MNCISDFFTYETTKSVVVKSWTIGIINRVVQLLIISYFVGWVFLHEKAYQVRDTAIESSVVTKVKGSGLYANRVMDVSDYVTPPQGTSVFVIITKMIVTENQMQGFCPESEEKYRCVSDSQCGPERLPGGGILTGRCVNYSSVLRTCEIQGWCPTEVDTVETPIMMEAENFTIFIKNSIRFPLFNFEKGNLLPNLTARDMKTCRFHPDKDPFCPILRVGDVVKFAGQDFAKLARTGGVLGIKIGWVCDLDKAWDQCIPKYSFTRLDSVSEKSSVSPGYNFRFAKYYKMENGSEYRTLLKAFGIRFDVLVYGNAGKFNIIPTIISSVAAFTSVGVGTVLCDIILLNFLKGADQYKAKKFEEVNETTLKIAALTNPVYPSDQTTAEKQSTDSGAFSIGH
Sequence of human P2X2/3 receptor (Q9UBL9 whole entry): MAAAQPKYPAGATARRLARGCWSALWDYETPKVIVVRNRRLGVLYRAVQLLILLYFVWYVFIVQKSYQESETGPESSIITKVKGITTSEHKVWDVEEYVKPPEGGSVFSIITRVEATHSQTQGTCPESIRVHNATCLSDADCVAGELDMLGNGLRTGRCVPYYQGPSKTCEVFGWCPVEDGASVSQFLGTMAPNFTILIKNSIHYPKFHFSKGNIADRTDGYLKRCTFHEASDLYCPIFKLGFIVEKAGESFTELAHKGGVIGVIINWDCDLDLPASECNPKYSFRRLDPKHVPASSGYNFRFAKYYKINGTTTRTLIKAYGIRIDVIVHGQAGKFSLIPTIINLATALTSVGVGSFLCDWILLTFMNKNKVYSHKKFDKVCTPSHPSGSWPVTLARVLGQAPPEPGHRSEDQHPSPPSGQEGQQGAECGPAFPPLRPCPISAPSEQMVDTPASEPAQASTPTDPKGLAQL
Sequence of human P2X3 receptor (P56373 whole entry): as the sequence (P56373 whole entry) above

`Cc1cnc(-c2cc(OC[C@@H]3CCOC3)cc(C(=O)N[C@H](C)c3ccc(C(F)(F)F)nn3)c2)s1` [Example 79, 3-(5-Methyl-1,3-thiazol-2-yl)-5-[(3R)-tetrahydrofuran-3-ylmethoxy]-N-[(1R)-1-[6-(trifluoromethyl)pyridazin-3-yl]ethyl]benzamide]: the IC50 is 9 nM in assay [1] (setting [3]) and 413 nM in assay [2] (setting [4]).
On the same counts, the results for `Cc1ccc([C@@H](C)NC(=O)c2cc(OC3CCOCC3)cc(-c3ncc(Cl)s3)c2)nn1` [Example 325, 3-(5-chloro-1,3-thiazol-2-yl)-N-[(1R)-1-(6-methylpyridazin-3-yl)ethyl]-5-(tetrahydro-2H-pyran-4-yloxy)benzamide] are 26 nM and 235 nM.
On the same counts, the results for `Cc1cnc(-c2cc(OC[C@H]3COCC(=O)N3)cc(C(=O)N[C@H](C)c3cnc(C(F)(F)F)nc3)c2)s1` [Example 396, 3-(5-methyl-1,3-thiazol-2-yl)-5-{[(3R)-5-oxomorpholin-3-yl]methoxy}-N-{(1R)-1-[2-(trifluoromethyl)pyrimidin-5-yl]ethyl}benzamide] are 22 nM and 1800 nM.
On the same counts, the results for `Cc1cnc(-c2cc(OCC3CC3)cc(C(=O)NC(C)c3ncc(Cl)cc3F)c2)s1` (racemic) [Example 6, N-[1-(5-Chloro-3-fluoropyridin-2-yl)ethyl]-3-(cyclopropylmethoxy)-5-(5-methyl-1,3-thiazol-2-yl)benzamide] are 4 nM and 38 nM.
For `Cc1ccc([C@@H](C)NC(=O)c2cc(OCC3CCOCC3)cc(-c3ncc(C)s3)c2)nn1` [Example 99, N-[(1R)-1-(6-Methylpyridazin-3-yl)ethyl]-3-(5-methyl-1,3-thiazol-2-yl)-5-(tetrahydro-2H-pyran-4-ylmethoxy)benzamide], the figures for the IC50 in assay [1] (setting [3]) and in assay [2] (setting [4]) were 2 nM and 27 nM, respectively.
Take `Cc1ncc([C@@H](C)NC(=O)c2cc(OCC3CCOCC3)cc(-c3ncc(C(C)C)s3)c2)cn1` [Example 126, N-[(1R)-1-(2-Methylpyrimidin-5-yl)ethyl]-3-[5-(propan-2-yl)-1,3-thiazol-2-yl]-5-(tetrahydro-2H-pyran-4-ylmethoxy)benzamide]: the figures for the IC50 in assay [1] (setting [3]) and in assay [2] (setting [4]) were 34 nM and 532 nM, respectively.
On the same counts, the results for `Cc1cnc(-c2cc(OC3CC4(C3)CN(C(=O)OC(C)(C)C)C4)cc(C(=O)N[C@H](C)c3cnc(C(F)(F)F)nc3)c2)s1` [Example 146, tert-butyl 6-[3-(5-methyl-1,3-thiazol-2-yl)-5-({(1R)-1-[2-(trifluoromethyl)pyrimidin-5-yl]ethyl}carbamoyl)phenoxy]-2-azaspiro[3.3]heptane-2-carboxylate] are 45 nM and 159 nM.
`Cc1cnc(-c2cc(OC[C@H]3CCOC3)cc(C(=O)N[C@H](C)c3cnc(C(F)(F)F)nc3)c2)s1` [Example 70, 3-(5-Methyl-1,3-thiazol-2-yl)-5-[(3S)-tetrahydrofuran-3-ylmethoxy]-N-[(1R)-1-[2-(trifluoromethyl)pyrimidin-5-yl]ethyl]benzamide]: the IC50 in assay [1] (setting [3]) came to 3 nM; in assay [2] (setting [4]), 78 nM.
On the same counts, the results for `Cc1cnc(-c2cc(OC3CCN(C)CC3F)cc(C(=O)N[C@H](C)c3cnc(C(F)(F)F)nc3)c2)s1` (stereo partly drawn) [Example 212, 3-[(3-fluoro-1-methylpiperidin-4-yl)oxy]-5-(5-methyl-1,3-thiazol-2-yl)-N-{(1R)-1-[2-(trifluoromethyl)pyrimidin-5-yl]ethyl} benzamide] are 4 nM and 46 nM.
On the same counts, the results for `Cc1cnc(-c2cc(OC3CCOCC3)cc(C(=O)N[C@H](C)c3cnc(C(F)(F)F)nc3)c2)s1` [Example 85, 3-(5-Methyl-1,3-thiazol-2-yl)-5-(tetrahydro-2H-pyran-4-yloxy)-N-{(1R)-1-[2-(trifluoromethyl)pyrimidin-5-yl]ethyl}benzamide] are 10 nM and 36 nM.
On the same counts, the results for `Cc1ccc([C@@H](C)NC(=O)c2cc(O[C@H]3CCOC3)cc(-c3ncc(C)s3)c2)nc1` [Example 28, N-[(1R)-1-(5-Methylpyridin-2-yl)ethyl]-3-(5-methyl-1,3-thiazol-2-yl)-5-[(3S)-tetrahydrofuran-3-yloxy]benzamide] are 48 nM and 121 nM.
With `Cc1cnc(-c2cc(O[C@H]3CC[C@H]4[C@H]3OCCN4C)cc(C(=O)N[C@H](C)c3cnc(C(F)(F)F)nc3)c2)s1` [Example 219, 3-{[(4aS,7S, 7aR)-4-methylocta-hydro-cyclopenta[b] [1,4]oxazin-7-yl]oxy}-5-(5-methyl-1,3-thiazol-2-yl)-N-{(1R)-1-[2-(trifluoromethyl)pyrimidin-5-yl]ethyl} benzamide], the IC50 in assay [1] (setting [3]) came to 2 nM; in assay [2] (setting [4]) it was 199 nM.
On the same counts, the results for `Cc1cnc(CNC(=O)c2cc(OC[C@@H]3CCCO3)cc(-c3ncc(C)s3)c2)cn1` [Example 56, N-[(5-Methylpyrazin-2-yl)methyl]-3-(5-methyl-1,3-thiazol-2-yl)-5-[(2S)-tetrahydrofuran-2-ylmethoxy]benzamide] are 148 nM and at least 10000 nM.
On the same counts, the results for `Cc1cnc(-c2cc(OCC3CNCCO3)cc(C(=O)N[C@H](C)c3cnc(C(F)(F)F)nc3)c2)s1` (stereo partly drawn) [Example 352, 3-(5-Methyl-1,3-thiazol-2-yl)-5-[morpholin-2-ylmethoxy]-N-{(1R)-1-[2-(trifluoromethyl)pyrimidin-5-yl]ethyl}benzamide] are 18 nM and 1140 nM.
Regarding `Cc1ccc([C@@H](C)NC(=O)c2cc(O[C@H]3CCOC3)cc(-c3ncc(C)s3)c2)nn1` [Example 25, N-[(1R)-1-(6-Methylpyridazin-3-yl)ethyl]-3-(5-methyl-1,3-thiazol-2-yl)-5-[(3S)-tetrahydrofuran-3-yloxy]benzamide], the IC50 in assay [1] (setting [3]) amounted to 39 nM; in assay [2] (setting [4]) it was 975 nM.
On the same counts, the results for `CCc1cnc(-c2cc(OC[C@@H]3CN(C)CCO3)cc(C(=O)N[C@H](C)c3ccc(C(F)(F)F)nn3)c2)s1` [Example 418, 3-(5-Ethyl-1,3-thiazol-2-yl)-5-{[(2S)-4-methylmorpholin-2-yl]methoxy}-N-{(1R)-1-[6-(trifluoromethyl)pyridazin-3-yl]ethyl}benzamide] are 23 nM and 1560 nM.
On the same counts, the results for `Cc1cnc(-c2cc(OCC3CCOC3)cc(C(=O)NC(C)c3ncc(F)cc3Cl)c2)s1` (stereo in doubt) [Example 69, N-[1-(3-Chloro-5-fluoropyridin-2-yl)ethyl]-3-(5-methyl-1,3-thiazol-2-yl)-5-[(3R)-tetrahydrofuran-3-ylmethoxy]benzamide] are 15 nM and 937 nM.
Regarding `Cc1cnc(-c2cc(OC[C@@H]3COCCO3)cc(C(=O)N[C@H](C)c3ccc(C(F)(F)F)nn3)c2)s1` [Example 182, 3-[(2S)-1,4-dioxan-2-ylmethoxy]-5-(5-methyl-1,3-thiazol-2-yl)-N-{(1R)-1-[6-(trifluoromethyl)pyridazin-3-yl]ethyl}benzamide], the IC50 in assay [1] (setting [3]) came to 63 nM; in assay [2] (setting [4]), 1940 nM.
Consider `Cc1ccc([C@@H](C)NC(=O)c2cc(O[C@@H]3CCOC3)cc(-c3ncc(C)s3)c2)cn1` [Example 24, N-[(1R)-1-(6-Methylpyridin-3-yl)ethyl]-3-(5-methyl-1,3-thiazol-2-yl)-5-[(3R)-tetrahydrofuran-3-yloxy]benzamide], for which the IC50 in assay [1] (setting [3]) was 36 nM; in assay [2] (setting [4]), 332 nM.
For `Cc1cnc(-c2cc(OCC3CNC3)cc(C(=O)N[C@H](C)c3cnc(C(F)(F)F)nc3)c2)s1` [Example 394, 3-(Azetidin-3-ylmethoxy)-5-(5-methyl-1,3-thiazol-2-yl)-N-{(1R)-1-[2-(trifluoromethyl)pyrimidin-5-yl]ethyl}benzamide], the values for the IC50 in assay [1] (setting [3]) and in assay [2] (setting [4]) were 82 nM and 3980 nM, respectively.
On the same counts, the results for `C#CCOc1cc(C(=O)N[C@H](C)c2ccc(C)nc2)cc(-c2ncc(C)s2)c1` [Example 33, N-[(1R)-1-(6-Methylpyridin-3-yl)ethyl]-3-(5-methyl-1,3-thiazol-2-yl)-5-(prop-2-yn-1-yloxy)benzamide] are 29 nM and 912 nM.
In the case of `Cc1cnc(-c2cc(OCC3CCN(C)CC3)cc(C(=O)N[C@H](C)c3cnc(C(F)(F)F)nc3)c2)s1` [Example 380, 3-[(1-methylpiperidin-4-yl)methoxy]-5-(5-methyl-1,3-thiazol-2-yl)-N-{(1R)-1-[2-(trifluoromethyl)pyrimidin-5-yl]ethyl}benzamide], the values for the IC50 in assay [1] (setting [3]) and in assay [2] (setting [4]) were 32 nM and 2880 nM, respectively.
On the same counts, the results for `Cc1cnc(-c2cc(OC[C@@H]3CN(C)CCO3)cc(C(=O)N[C@H](C)c3ccc(C(F)(F)F)nn3)c2)s1` [Example 374, 3-{[(2S)-4-methylmorpholin-2-yl]methoxy}-5-(5-methyl-1,3-thiazol-2-yl)-N-{(1R)-1-[6-(trifluoromethyl)pyridazin-3-yl]ethyl}benzamide] are 55 nM and 2560 nM.
As for `CCc1cnc(-c2cc(O[C@H]3CN4CCC3CC4)cc(C(=O)N[C@H](C)c3cnc(C(F)(F)F)nc3)c2)s1` [Example 174, 3-[(3R)-1-azabicyclo[2.2.2]oct-3-yloxy]-5-(5-ethyl-1,3-thiazol-2-yl)-N-{(1R)-1-[2-(trifluoromethyl)pyrimidin-5-yl]ethyl}benzamide], the IC50 is 11 nM in assay [1] and 790 nM in assay [2] (hP2X2/3 IC50 (nM)).
As to `Cc1cnc([C@@H](C)NC(=O)c2cc(OC[C@@H]3CCOC3)cc(-c3ncc(C)s3)c2)cn1` [Example 74, N-[(1R)-1-(5-Methylpyrazin-2-yl)ethyl]-3-(5-methyl-1,3-thiazol-2-yl)-5-[(3R)-tetrahydrofuran-3-ylmethoxy]benzamide], the IC50 is 14 nM in assay [1] (setting [3]) and 1110 nM in assay [2] (setting [4]).
